According to paper PMC8344233, “Anticancer activity and toxicity of new quaternary ammonium geldanamycin derivative salts and their mixtures with potentiators” (Journal of Enzyme Inhibition and Medicinal Chemistry, 2021):

Experiments:
[1] = test system: HeLa; assay: MTT cytotoxicity assay, HeLa (1st panel); format: cell-based, human; conditions: for IC50: Homo sapiens, HeLa, ± SD, MTT, 72 h; for selectivity index SI (HeLa): IC50 normal cell line CCD39Lu/IC50 HeLa
Method: (§1) Cell survival was measured as the percentage absorbance compared to the control (nontreated cells). […]
(§2) SI indexes were calculated from equation SI = IC50 normal cell line HDF/IC50 respective cancerous cell line (Table 2). A beneficial SI > 1.0 indicates a compound with efficacy against tumor cell greater than the toxicity against normal cells.
(§3) All experiments were carried out with human breast adenocarcinoma (MDA-MB-231 and MCF-7), hepatocellular carcinoma (HepG2), human cervical adenocarcinoma (HeLa) cancer cell lines, and human normal lung fibroblast (CCD39Lu) cell line. The cell line was purchased from the European Collection of Cells Cultures (ECACC, Salisbury, UK), and cultured in DMEM with phenol red supplemented with 10% (v/v) FBS, 1% (v/v) penicillin/streptomycin, and 1% (v/v) L-glutamine at 37 °C, in a humidified atmosphere containing 5% CO2.
(§4) The tested compounds were dissolved in DMSO to the final concentration 10 mM and stored […]
(§5) The cytotoxic effect of the tested compounds was determined by MTT assay. MDA-MB-231, MCF-7, HepG2, HeLa, and CCD39Lu cells were seeded in 96 wells plates at density 2x10^4 cells/well and incubated overnight under cell culture condition. Next, cells were treated with tested compounds at concentrations of 10 µM; 5 µM; 2.5 µM; 1.2 µM; 0.6 µM; 0.3 µM; 0.15 […]
(§6) µM. Moreover, GDM (for MCF-7) and 8 (for MCF-7 and MDA-MB-231) due to high cytotoxicity, were additionally tested at a lower concentration range of 2.5 µM; 1.2 µM; 0.6 µM; 0.3 µM; 0.15µM; 0.07 µM; 0.03 µM. DMSO was used as a control, and the concentration […]
(§7) Tested compounds were added to cells in the medium without phenol red. Cells were incubated 72 h at 37 °C in a humidified atmosphere containing 5% CO2.
(§8) Then, the medium was aspirated and MTT solution at a concentration of 0.59 mg/mL in cell culture medium was added to each well. Plates were incubated for 1.5 hours at 37 °C, and then plates were centrifuged for 3 minutes. The formazan crystals were dissolved in 200 µl DMSO and plates were agitated on a plate shaker at 300 –500 rpm for 10 minutes. Absorbance at 570 nm was measured using a plate reader (Biotek Instruments, Elx -800). Data were normalized to the mean absorption of control cells. All experiments were performed at least three times. […]

[2] = test system: SKBR-3; assay: SRB cytotoxicity assay, SKBR-3 (2nd panel); format: cell-based, human; conditions: for IC50: Homo sapiens, SK-BR-3, ± SD, SRB, 72 h, mixtures equimolar 1:1; for selectivity index SIHDF (SKBR-3): IC50 normal cell line HDF/IC50 SKBR-3
Method: (§9) Human cancer cells SKBR-3 (human breast cancer cell line) and SKOV-3 (ovarian cancer cell line) were cultured in McCoy’s Modified Medium. […]
(§10) Medium. Human Dermal Fibroblasts cell line (HDF) was cultured in Fibroblast Basal Medium.
(§11) Each medium was supplemented with 10% fetal bovine serum, 1% L-glutamine, and 1% penicillin/streptomycin solution. The cell lines were kept in the incubator at 37◦C. The optimal plating density of cell lines was determined to be 5 × 104. All the cell lines and mediums were obtained from American Type Culture Collection (ATCC) supplied by LGC-Standards. The protein-staining SRB (Sigma-Aldrich) microculture colorimetric assay, developed by the National Cancer Institute (USA) for in vitro antitumor screening was used in this study, to estimate the cell number by providing a sensitive index of total cellular protein content, being linear to cell density. The monolayer cell culture was trypsinized and the cell count was adjusted to 5 × 10^4 cells. To each well of the 96 well microtiter plate, 0.1 mL of the diluted cell suspension (approximately […]) was added. After 24 hours, when a partial monolayer was formed, the supernatant was washed out and 100 μL of six different compound concentrations (0.1, 0.2, 1, 2, 10, and 20 μM) were added to the cells in microtitre plates. The tested compounds were dissolved in DMSO (containing 10 % of water) (100 μL) and the […]
(§12) lines. The cells were exposed to compounds for 72 hours at 37 °C in a humidified atmosphere (90% RH) containing 5% CO2. After that, 25 μL of 50 % trichloroacetic acid was added to the wells and the plates were incubated for 1 hour at 4◦C. The plates were then washed out with the distilled water to remove traces of medium and next dried by the air. The air-dried plates were stained with 100 μL of 0.4% sulforhodamine B (prepared in 1 % acetic acid) and kept for 30 minutes at room temperature. The unbound dye was removed by rapidly washing with 1% […]
(§13) acetic acid and then air dried overnight. The protein-bound dye was dissolved in 100 μL of 10 mM unbuffered Tris base (pH 10.5) for optical density determination at 490 nm. All cytotoxicity experiments were performed three times. Cell survival was measured as the percentage absorbance compared to the control (nontreated cells). Cytarabine (ara-C) and GDM were used as the internal standards. Additionally biological assays were performed in Human Dermal Fibroblasts cell line (HDF) in aim to evaluate cytotoxicity of GDM and its 1-13 analogs in healthy cells. SI indexes were calculated from equation SI = IC50 normal cell line HDF/IC50 respective cancerous cell line (Table 2). A beneficial SI > 1.0 indicates a compound with efficacy against tumor cell greater than the toxicity against normal cells. […]

[3] = test system: HepG2; assay: MTT cytotoxicity assay, HepG2 (1st panel); format: cell-based, human; conditions: for IC50: Homo sapiens, HepG2, ± SD, MTT, 72 h; for selectivity index SI (HepG2): IC50 normal cell line CCD39Lu/IC50 HepG2
Method: as §1, §2, §3, §4, §5, §6, §7, §8

[4] = test system: PC-3; assay: SRB cytotoxicity assay, PC-3 (2nd panel); format: cell-based, human; conditions: for IC50: Homo sapiens, PC-3, ± SD, SRB, 72 h, mixtures equimolar 1:1; for selectivity index SIHDF (PC-3): IC50 normal cell line HDF/IC50 PC-3
Method: as §10, §11, §12, §13

[5] = test system: HDF; assay: SRB cytotoxicity assay, human dermal fibroblasts HDF; format: cell-based; conditions: 72 h, ± SD, mixtures equimolar 1:1, read-out: IC50 HDF (toxicity in normal cells)
Method: as §10, §11, §12, §13

[6] = test system: MCF-7; assay: MTT cytotoxicity assay, MCF-7 (1st panel); format: cell-based, human; conditions: for IC50: Homo sapiens, MCF7, 72 h, ± SD, MTT, 72 h; for selectivity index SI (MCF-7): IC50 normal cell line CCD39Lu/IC50 MCF-7
Method: as §1, §2, §3, §4, §5, §6, §7, §8

[7] = physchem; conditions: water, Solubility SH2O
[8] = test system: U-87; assay: SRB cytotoxicity assay, U-87 (2nd panel); format: cell-based, human; conditions: for IC50: Homo sapiens, U-87 MG, ± SD, SRB, 72 h; for selectivity index SIHDF (U-87): IC50 normal cell line HDF/IC50 U-87
Method: U-87MG cells (glioblastoma cell line) were cultured in Eagle’s Minimal Essential Medium. Human Dermal Fibroblasts cell line (HDF) was cultured in Fibroblast Basal Medium.
as §11, §12, §13

[9] = test system: SKOV-3; assay: SRB cytotoxicity assay, SKOV-3 (2nd panel); format: cell-based, human; conditions: for IC50: Homo sapiens, SK-OV-3, ± SD, SRB, 72 h, mixtures equimolar 1:1; for selectivity index SIHDF (SKOV-3): IC50 normal cell line HDF/IC50 SKOV-3
Method: as §9, §10, §11, §12, §13

[10] = test system: CCD39Lu; assay: MTT cytotoxicity assay, normal lung fibroblasts CCD39Lu; format: cell-based; conditions: Fibroblast, ± SD, healthy human lung fibroblasts, 72 h, read-out: IC50 CCD39Lu (toxicity in normal cells)
Method: as §1, §2, §3, §4, §5, §6, §7, §8

[11] = test system: A-549; assay: SRB cytotoxicity assay, A-549 (2nd panel); format: cell-based, human; conditions: for IC50: Homo sapiens, A549, ± SD, SRB, 72 h; for selectivity index SIHDF (A-549): IC50 normal cell line HDF/IC50 A-549
Method: as §10, §11, §12, §13

[12] = test system: MDA-MB-231; assay: MTT cytotoxicity assay, MDA-MB-231 (1st panel); format: cell-based, human; conditions: for IC50: Homo sapiens, MDA-MB-231, ± SD, MTT, 72 h; for selectivity index SI (MDA-MB-231): IC50 normal cell line CCD39Lu/IC50 MDA-MB-231
Method: as §1, §2, §3, §4, §5, §6, §7, §8

[13] = test system: cancer cell lines; assay: Cytotoxicity, values summarised over several cancer cell lines; format: cell-based, human; conditions: Homo sapiens, approximate level over the three cancer cell lines; mixtures equimolar 1:1; read-out: IC50 in SKBR-3, SKOV-3 and PC-3
Method: Human cancer cells SKBR-3 (human breast cancer cell line) and SKOV-3 (ovarian cancer cell line) were cultured in McCoy’s Modified Medium. Human cancer cells PC-3 (human prostate cancer cell line) were cultured in F-12K medium, as well as A549 cell line (lung cancer cell line). U-87MG cells (glioblastoma cell line) were cultured in Eagle’s Minimal Essential Medium. Human Dermal Fibroblasts cell line (HDF) was cultured in Fibroblast Basal Medium.
as §11, §12
acetic acid and then air dried overnight. The protein-bound dye was dissolved in 100 μL of 10 mM unbuffered Tris base (pH 10.5) for optical density determination at 490 nm. All cytotoxicity experiments were performed three times. Cell survival was measured as the percentage absorbance compared to the control (nontreated cells). Cytarabine (ara-C) and GDM were used as the internal standards. Additionally biological assays were performed in Human Dermal Fibroblasts cell line (HDF) in aim to evaluate cytotoxicity of GDM and its 1-13 analogs in healthy cells. SI indexes were calculated from equation SI = IC50 normal cell line HDF/IC50 respective cancerous cell line (Table 2). A beneficial SI > 1.0 indicates a compound with efficacy against tumor cell greater than the toxicity against normal cells.
as §3, §4, §5

[14] = Water solubility SH2O

SMILES	IC50 [1] [nM]	selectivity index SI (HeLa) [1]	IC50 [2] [nM]	selectivity index SIHDF (SKBR-3) [2]	IC50 [3] [nM]	selectivity index SI (HepG2) [3]	IC50 [4] [nM]	selectivity index SIHDF (PC-3) [4]	CC50 [5] [nM]	IC50 [6] [nM]	selectivity index SI (MCF-7) [6]	IC50 [8] [nM]	selectivity index SIHDF (U-87) [8]	IC50 [9] [nM]	selectivity index SIHDF (SKOV-3) [9]	IC50 [10] [nM]	IC50 [11] [nM]	selectivity index SIHDF (A-549) [11]	IC50 [12] [nM]	selectivity index SI (MDA-MB-231) [12]	other results
CO[C@H]1/C=C\C=C(/C)C(=O)NC2=CC(=O)C(NC3C[N+]4(Cc5ccsc5Br)CCC3CC4)=C(C[C@@H](C)C[C@H](OC)[C@H](O)[C@@H](C)/C=C(\C)[C@@H]1OC(N)=O)C2=O (some centres unmarked) [Compound 12]	9120 ± 1810	> 1.10	8490 ± 360	1.64	> 10000	> 1	7940 ± 30	1.75	13900 ± 420	2650 ± 1090	> 3.77	8580 ± 190	1.62	8020 ± 170	1.73	> 10000	8940 ± 270	1.56	5010 ± 2150	> 2.00	solubility [7]: 4500 µg/mL
COc1cccc2c1C(=O)c1c(O)c3c(c(O)c1C2=O)C[C@@](O)(C(=O)CO)C[C@@H]3O[C@H]1C[C@H](N)[C@H](O)[C@H](C)O1 [DOX, doxorubicin, reference compound]	–	–	720 ± 40	2.11	–	–	680 ± 10	2.24	1520 ± 30	–	–	–	–	740 ± 60	2.05	–	–	–	–	–	IC50 [13]: ~700 nM
COC1=C2C[C@@H](C)C[C@H](OC)[C@H](O)[C@@H](C)/C=C(\C)[C@H](OC(N)=O)[C@@H](OC)/C=C\C=C(/C)C(=O)NC(=CC1=O)C2=O [GDM, Geldanamycin]	1420 ± 100	5.99	870 ± 170	2.45	740 ± 320	11.48	730 ± 10	2.92	2130 ± 110	3510 ± 210	2.42	810 ± 120	2.62	940 ± 90	2.27	8500 ± 250	990 ± 10	2.15	1040 ± 630	8.17	Solubility SH2O [14]: almost water-insoluble
